Assay results published in paper PMC7506137, “Selective Phosphodiesterase 1 Inhibitor BTTQ Reduces Blood Pressure in Spontaneously Hypertensive and Dahl Salt Sensitive Rats: Role of Peripheral Vasodilation” (Frontiers in Physiology, 2020).
Where “and” joins values, the source holds several entries; their conditions need not be identical. Equal values may be shown once. Read-outs that look alike come from different tables or passages of the source.

Key:
Rat PDE3A = biological target: T1, Rat PDE3A (Rattus norvegicus, UniProt Q62865); assay: PDE scintillation proximity enzyme assay; type: biochemical
T1 construct: made in house; host or cells: baculovirus-infected insect cells
T1 sequence (Q62865 1-1141): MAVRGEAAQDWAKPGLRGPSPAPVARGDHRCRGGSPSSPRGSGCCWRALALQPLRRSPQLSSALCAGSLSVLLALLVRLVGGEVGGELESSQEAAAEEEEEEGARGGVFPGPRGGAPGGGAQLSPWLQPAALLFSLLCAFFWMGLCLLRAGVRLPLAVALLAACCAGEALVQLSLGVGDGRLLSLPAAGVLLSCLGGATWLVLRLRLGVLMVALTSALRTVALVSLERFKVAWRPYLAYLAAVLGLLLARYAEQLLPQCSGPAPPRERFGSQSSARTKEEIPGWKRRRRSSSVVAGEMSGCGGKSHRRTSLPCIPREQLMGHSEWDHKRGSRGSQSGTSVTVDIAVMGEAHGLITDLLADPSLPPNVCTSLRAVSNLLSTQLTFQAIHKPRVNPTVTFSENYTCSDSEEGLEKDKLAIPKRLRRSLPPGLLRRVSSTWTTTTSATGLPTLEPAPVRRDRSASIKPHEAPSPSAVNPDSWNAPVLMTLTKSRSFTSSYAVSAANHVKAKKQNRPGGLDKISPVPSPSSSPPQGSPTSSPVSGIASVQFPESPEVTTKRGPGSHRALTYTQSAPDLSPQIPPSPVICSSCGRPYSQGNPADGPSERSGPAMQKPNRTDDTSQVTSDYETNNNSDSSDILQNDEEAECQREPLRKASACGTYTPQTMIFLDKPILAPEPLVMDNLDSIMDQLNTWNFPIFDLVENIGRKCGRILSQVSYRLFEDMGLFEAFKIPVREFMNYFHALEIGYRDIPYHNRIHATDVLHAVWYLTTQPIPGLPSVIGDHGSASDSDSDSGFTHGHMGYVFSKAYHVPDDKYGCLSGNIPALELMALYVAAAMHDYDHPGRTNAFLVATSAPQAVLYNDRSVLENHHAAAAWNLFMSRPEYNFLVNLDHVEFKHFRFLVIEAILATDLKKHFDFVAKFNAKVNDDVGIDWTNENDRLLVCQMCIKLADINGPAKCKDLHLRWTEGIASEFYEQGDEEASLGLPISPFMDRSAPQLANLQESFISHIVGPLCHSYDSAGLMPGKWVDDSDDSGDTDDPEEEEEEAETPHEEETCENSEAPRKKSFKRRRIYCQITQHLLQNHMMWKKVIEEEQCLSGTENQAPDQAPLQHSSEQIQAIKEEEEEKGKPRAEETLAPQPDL
Experimental: (§1) All PDE enzyme activities were measured with a yittrium silicate based scintillation proximity assay that detects radioactive nucleotide monophosphates but not cyclic monophosphates. Assays are conducted in a total volume of 50 μl in 384 well plates (3706, Corning): comprised of 24 μl enzyme, 1 μl compound, and 25 μl of cyclic nucleotide. The general assay buffer consists of 50 mM Tris-HCl (pH 7.5) and 0.1% (w/v) bovine serum albumin (Fatty Acid Free, Sigma-Aldrich). Enzyme concentrations, substrate concentrations, and various PDE-specific buffer additives are described in Supplementary Table 1. Compounds to be tested are diluted in pure dimethyl sulfoxide (DMSO) using 10-point concentration-response curves, and 1 μl is acoustically dispensed into assay plates using the Echo555 (LabCyte). Maximal compound concentration in the reaction mixture is either 10 or 100 μM. Compounds at the appropriate concentration are pre-incubated with either of the PDE enzymes for 30 min before the reaction is started by the addition of substrate ([8-^3H]-cAMP, 20.7 Ci/mmol or [8-^3H]-cGMP; 6.5 Ci/mmol, Perkin Elmer). Reactions are allowed to proceed for 60 min at room temperature before quenching. Next, reactions are stopped by the addition of 400 μg/per well SPA beads (RPNQ0150, Perkin Elmer) and a potent non-selective PDE inhibitor to quench the reaction. Bead bound radioactivity (product) is quantified 12 h later a Microbeta counter (Perkin Elmer). Data is normalized to % inhibition using standard methods ([Campbell et al., 2004]), and IC50 values were plotted using PRISM (GraphPad Software) using the 4 parameter logistic equation ([Campbell et al., 2004]). Data for potency values are expressed as the geometric mean and arithmetic standard deviation.

[1] = Rat PK parameters (IV and oral); type: in vivo
Human PDE4D = biological target: T2, Human PDE4D (Homo sapiens, UniProt Q08499); assay: PDE scintillation proximity enzyme assay; type: biochemical; conditions: geometric mean (SD, n)
T2 construct: made in house; host or cells: baculovirus-infected insect cells
Experimental: (§2) All PDE proteins were expressed in baculoviral infected insect cells using standard methods [pFastBac, pFastBac Dual (Invitrogen), pIEX4 (Novagen)]. See Supplementary Table 1 for DNA sequences, construct boundaries, affinity tags, and expression vectors. HIS6 tagged PDE proteins were purified using Ni-NTA agarose (Qiagen) followed by size exclusion chromatography on a Superdex 200 column (GE Healthcare) in storage buffer (20 mM Tris-HCl, pH 7.5, 150 mM NaCl, 10% Glycerol). FLAG-tagged PDE proteins including the PDE6A/6B heterodimer were purified using anti-FLAG M2-agarose (Sigma-Aldrich), after purification through NiNTA column chromatography and eluted in storage buffer (50 mM Tris-HCl, pH 7.5, 150 mM NaCl, 10% Glycerol, 0.1 mg/ml Flag peptide). All purified proteins were stored at −80°C in small aliquots.
as §1

Human PDE1A = biological target: T3, Human PDE1A (Homo sapiens, UniProt P54750); assay: PDE scintillation proximity enzyme assay; type: biochemical; conditions: geometric mean (SD, n)
T3 construct: made in house; host or cells: baculovirus-infected insect cells
Experimental: as §2, §1

Human PDE1B = biological target: T4, Human PDE1B (Homo sapiens, UniProt Q01064); assay: PDE scintillation proximity enzyme assay; type: biochemical; conditions: geometric mean (SD, n)
T4 construct: made in house; host or cells: baculovirus-infected insect cells
Experimental: as §2, §1

Human PDE7B = biological target: T5, Human PDE7B (Homo sapiens, UniProt Q9NP56); assay: PDE scintillation proximity enzyme assay; type: biochemical; conditions: geometric mean (SD, n)
T5 construct: made in house; host or cells: baculovirus-infected insect cells
Experimental: as §2, §1

Human PDE11A = biological target: T6, Human PDE11A (Homo sapiens, UniProt Q9HCR9); assay: PDE scintillation proximity enzyme assay; type: biochemical; conditions: geometric mean (SD, n)
T6 construct: made in house; host or cells: baculovirus-infected insect cells
Experimental: as §2, §1

Human PDE1C = biological target: T7, Human PDE1C (Homo sapiens, UniProt Q14123); assay: PDE scintillation proximity enzyme assay; type: biochemical; conditions: geometric mean (SD, n)
T7 construct: made in house; host or cells: baculovirus-infected insect cells
Experimental: as §2, §1

T4 sequence (Q01064 whole entry): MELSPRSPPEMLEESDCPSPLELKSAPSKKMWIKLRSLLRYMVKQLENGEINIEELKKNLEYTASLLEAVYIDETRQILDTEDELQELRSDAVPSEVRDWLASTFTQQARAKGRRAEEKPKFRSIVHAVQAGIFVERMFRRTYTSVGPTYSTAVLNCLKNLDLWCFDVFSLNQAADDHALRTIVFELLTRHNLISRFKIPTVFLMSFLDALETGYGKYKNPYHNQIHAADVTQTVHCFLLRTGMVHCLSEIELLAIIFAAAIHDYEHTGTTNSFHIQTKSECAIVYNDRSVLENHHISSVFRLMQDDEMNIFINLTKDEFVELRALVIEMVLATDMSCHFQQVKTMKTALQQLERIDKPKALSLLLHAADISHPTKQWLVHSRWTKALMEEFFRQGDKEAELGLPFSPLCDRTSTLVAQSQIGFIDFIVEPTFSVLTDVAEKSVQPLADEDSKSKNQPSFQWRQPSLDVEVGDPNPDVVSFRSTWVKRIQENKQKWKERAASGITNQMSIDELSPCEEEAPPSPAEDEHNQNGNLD
T3 sequence (P54750 whole entry): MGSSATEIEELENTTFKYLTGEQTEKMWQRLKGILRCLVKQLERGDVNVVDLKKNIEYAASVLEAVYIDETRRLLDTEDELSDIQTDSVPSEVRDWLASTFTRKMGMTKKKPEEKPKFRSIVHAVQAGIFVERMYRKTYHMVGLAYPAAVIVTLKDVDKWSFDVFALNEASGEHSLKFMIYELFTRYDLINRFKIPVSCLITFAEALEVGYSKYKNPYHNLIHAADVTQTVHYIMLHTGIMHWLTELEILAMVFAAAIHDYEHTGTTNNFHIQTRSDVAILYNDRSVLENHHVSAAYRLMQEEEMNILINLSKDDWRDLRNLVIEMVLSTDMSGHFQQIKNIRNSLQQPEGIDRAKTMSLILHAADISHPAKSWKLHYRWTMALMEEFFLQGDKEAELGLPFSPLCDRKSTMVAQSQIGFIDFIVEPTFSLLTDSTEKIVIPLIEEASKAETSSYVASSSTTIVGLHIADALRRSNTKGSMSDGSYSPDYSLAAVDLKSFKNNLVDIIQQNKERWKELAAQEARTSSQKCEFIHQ
T2 sequence (Q08499 whole entry): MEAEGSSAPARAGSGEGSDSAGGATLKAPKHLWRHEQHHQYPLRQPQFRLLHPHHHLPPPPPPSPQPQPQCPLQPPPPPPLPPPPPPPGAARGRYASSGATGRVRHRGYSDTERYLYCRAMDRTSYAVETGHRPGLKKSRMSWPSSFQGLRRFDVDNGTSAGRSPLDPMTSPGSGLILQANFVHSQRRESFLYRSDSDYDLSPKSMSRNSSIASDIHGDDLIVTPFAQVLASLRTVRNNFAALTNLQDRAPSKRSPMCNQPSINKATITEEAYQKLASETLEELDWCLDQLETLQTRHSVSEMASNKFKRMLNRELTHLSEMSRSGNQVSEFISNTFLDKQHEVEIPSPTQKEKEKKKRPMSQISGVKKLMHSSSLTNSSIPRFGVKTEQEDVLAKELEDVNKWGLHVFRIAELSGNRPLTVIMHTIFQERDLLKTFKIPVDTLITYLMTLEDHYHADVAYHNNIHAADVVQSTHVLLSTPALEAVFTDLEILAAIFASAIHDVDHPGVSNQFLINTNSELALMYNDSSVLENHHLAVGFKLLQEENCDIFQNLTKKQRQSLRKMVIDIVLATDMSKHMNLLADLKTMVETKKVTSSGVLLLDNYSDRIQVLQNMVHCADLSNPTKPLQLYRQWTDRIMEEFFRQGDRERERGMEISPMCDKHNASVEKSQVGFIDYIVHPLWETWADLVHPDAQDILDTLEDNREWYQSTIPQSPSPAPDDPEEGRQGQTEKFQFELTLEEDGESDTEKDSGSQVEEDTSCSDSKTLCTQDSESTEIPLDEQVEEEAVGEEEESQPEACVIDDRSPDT
T7 sequence (Q14123 whole entry): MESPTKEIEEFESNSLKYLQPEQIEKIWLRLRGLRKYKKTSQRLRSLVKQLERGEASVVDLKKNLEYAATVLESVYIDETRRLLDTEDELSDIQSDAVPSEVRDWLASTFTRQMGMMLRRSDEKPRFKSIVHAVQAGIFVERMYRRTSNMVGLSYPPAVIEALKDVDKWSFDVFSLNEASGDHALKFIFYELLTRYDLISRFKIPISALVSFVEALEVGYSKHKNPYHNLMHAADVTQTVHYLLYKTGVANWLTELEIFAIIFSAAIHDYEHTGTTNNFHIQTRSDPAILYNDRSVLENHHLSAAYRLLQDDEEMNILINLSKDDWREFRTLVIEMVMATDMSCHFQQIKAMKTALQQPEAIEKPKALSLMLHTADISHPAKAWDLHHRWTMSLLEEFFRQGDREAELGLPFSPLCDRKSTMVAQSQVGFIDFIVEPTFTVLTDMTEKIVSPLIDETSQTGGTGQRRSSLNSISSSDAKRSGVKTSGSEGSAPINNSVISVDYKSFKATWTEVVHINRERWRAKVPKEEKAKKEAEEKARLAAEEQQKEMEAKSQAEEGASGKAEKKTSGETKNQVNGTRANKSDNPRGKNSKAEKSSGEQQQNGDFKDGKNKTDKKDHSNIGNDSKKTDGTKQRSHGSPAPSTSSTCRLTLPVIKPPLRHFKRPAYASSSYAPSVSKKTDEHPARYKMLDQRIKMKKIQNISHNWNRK
T6 sequence (Q9HCR9 whole entry): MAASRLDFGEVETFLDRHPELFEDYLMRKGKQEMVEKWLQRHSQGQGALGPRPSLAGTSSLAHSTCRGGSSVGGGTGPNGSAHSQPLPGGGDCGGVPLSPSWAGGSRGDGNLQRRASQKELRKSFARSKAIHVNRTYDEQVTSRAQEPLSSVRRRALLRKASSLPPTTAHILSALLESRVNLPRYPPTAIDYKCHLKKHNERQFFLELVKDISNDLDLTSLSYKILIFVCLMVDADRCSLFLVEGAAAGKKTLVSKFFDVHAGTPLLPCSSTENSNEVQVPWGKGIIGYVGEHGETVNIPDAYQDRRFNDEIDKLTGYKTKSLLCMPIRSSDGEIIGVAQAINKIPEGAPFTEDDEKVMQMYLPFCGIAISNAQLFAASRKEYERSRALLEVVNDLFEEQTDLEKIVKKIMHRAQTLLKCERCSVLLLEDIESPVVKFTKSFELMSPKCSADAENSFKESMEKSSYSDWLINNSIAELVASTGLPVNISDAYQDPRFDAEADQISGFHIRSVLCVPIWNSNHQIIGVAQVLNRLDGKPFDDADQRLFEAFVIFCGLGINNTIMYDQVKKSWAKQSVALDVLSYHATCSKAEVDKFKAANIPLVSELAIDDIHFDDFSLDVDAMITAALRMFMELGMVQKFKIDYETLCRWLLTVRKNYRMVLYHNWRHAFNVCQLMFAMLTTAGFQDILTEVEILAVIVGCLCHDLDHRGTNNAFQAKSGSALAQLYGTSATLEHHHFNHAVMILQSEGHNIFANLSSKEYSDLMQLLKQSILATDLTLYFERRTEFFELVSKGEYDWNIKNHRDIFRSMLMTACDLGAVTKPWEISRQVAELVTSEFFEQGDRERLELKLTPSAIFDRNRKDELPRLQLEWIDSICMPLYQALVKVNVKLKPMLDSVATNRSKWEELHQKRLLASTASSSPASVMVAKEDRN
T5 sequence (Q9NP56 whole entry): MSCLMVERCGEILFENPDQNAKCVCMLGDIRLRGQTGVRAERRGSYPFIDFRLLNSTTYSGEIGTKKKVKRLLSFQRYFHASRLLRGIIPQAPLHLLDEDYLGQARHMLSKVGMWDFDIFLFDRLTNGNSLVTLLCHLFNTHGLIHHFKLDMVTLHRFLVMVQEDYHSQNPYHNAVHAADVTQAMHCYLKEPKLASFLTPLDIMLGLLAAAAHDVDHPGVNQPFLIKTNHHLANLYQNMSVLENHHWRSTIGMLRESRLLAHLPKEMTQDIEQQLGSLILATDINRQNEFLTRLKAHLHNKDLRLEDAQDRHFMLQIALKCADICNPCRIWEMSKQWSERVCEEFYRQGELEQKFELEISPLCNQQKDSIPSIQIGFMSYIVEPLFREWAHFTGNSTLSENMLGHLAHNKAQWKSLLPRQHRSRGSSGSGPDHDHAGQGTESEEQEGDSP

IC50 (Rat PDE3A): inactive
IC50 (Rat PDE3A; read-out: IC50): > 100000 nM
% of dose recovered in urine [1]: 0.4%
clearance ([1]; in vivo, 1 mg/kg, IV 1 mpk, mean ± SD, 3 animals): 3.2 ± 0.6 mL/min/kg
Vd ([1]; in vivo, 1 mg/kg, IV 1 mpk, mean ± SD, 3 animals, read-out: IV Vdss): 0.6 ± 0.04 L/kg
half-life ([1]; in vivo, 1 mg/kg, IV 1 mpk, mean ± SD, 3 animals, read-out: IV t1/2 (converted)): 2.7 ± 0.5 h
bioavailability ([1]; in vivo, IV 1 mpk and oral 10 mpk, mean ± SD, 3 animals): 58 ± 20%
IC50 (Human PDE4D): 12000 nM
IC50 (Human PDE1A): 1 nM
IC50 (Human PDE1B): 0.5 nM and 0.45 nM
IC50 (Human PDE7B): 1600 nM
IC50 (Human PDE11A): 2400 nM
IC50 (Human PDE1C): 0.14 nM
SMILES: O=c1c2nnc(C3(C4CC4)CC3)n2c2c(n1CC1CC1)CCCC2 [BTTQ, 1-[1,1′-bi(cyclopropyl)-1-yl]-5-(cyclopropylmethyl)-6,7,8,9-tetrahydro[1,2,4]triazolo[4,3-A]quinoxaline-4(5H)-one]
